PubChem BioAssay (NCI)
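Exposure lasted 48 hours, with cells grown in 96-well plates and compounds tested at five concentrations. The concentration for 50% growth inhibition is given as GI50. TGI: concentration producing complete growth inhibition.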

Tests used:
Experiment in all cases: DTP human tumour cell line panel, 48 h
OVCAR-4 ovarian = system: OVCAR-4 ovarian
SK-MEL-2 melanoma = system: SK-MEL-2 melanoma
MDA-MB-231 breast = system: MDA-MB-231 breast
NCI-H226 lung = system: NCI-H226 lung
KM12 colon = system: KM12 colon
HCT-116 colon = system: HCT-116 colon
CAKI-1 renal = system: CAKI-1 renal
UO-31 renal = system: UO-31 renal
A549 NSCLC = system: A549 NSCLC
786-0 renal = system: 786-0 renal
SR leukemia = system: SR leukemia
HL-60(TB) leukemia = system: HL-60(TB) leukemia
HCT-15 colon = system: HCT-15 colon
NCI/ADR-RES ovarian = system: NCI/ADR-RES ovarian
ACHN renal = system: ACHN renal
MDA-MB-468 breast = system: MDA-MB-468 breast
NCI-H23 lung = system: NCI-H23 lung
CCRF-CEM leukemia = system: CCRF-CEM leukemia
OVCAR-3 ovarian = system: OVCAR-3 ovarian
MALME-3M melanoma = system: MALME-3M melanoma
RPMI-8226 leukemia = system: RPMI-8226 leukemia
SF-268 CNS = system: SF-268 CNS
SK-MEL-5 melanoma = system: SK-MEL-5 melanoma
HOP-92 NSCLC = system: HOP-92 NSCLC
SNB-75 CNS = system: SNB-75 CNS
SK-MEL-28 melanoma = system: SK-MEL-28 melanoma
SNB-19 CNS = system: SNB-19 CNS
SN12C renal = system: SN12C renal
MCF7 breast = system: MCF7 breast
HCC-2998 colon = system: HCC-2998 colon
EKVX NSCLC = system: EKVX NSCLC
T-47D breast = system: T-47D breast
COLO 205 colon = system: COLO 205 colon
HT29 colon = system: HT29 colon
SW-620 colon = system: SW-620 colon
SF-539 CNS = system: SF-539 CNS
TK-10 renal = system: TK-10 renal
SK-OV-3 ovarian = system: SK-OV-3 ovarian
UACC-257 melanoma = system: UACC-257 melanoma
HS 578T breast = system: HS 578T breast
M14 melanoma = system: M14 melanoma
IGROV1 ovarian = system: IGROV1 ovarian
A498 renal = system: A498 renal
U251 CNS = system: U251 CNS
SF-295 CNS = system: SF-295 CNS
OVCAR-5 ovarian = system: OVCAR-5 ovarian
HOP-62 NSCLC = system: HOP-62 NSCLC
K-562 leukemia = system: K-562 leukemia
MOLT-4 leukemia = system: MOLT-4 leukemia
OVCAR-8 ovarian = system: OVCAR-8 ovarian
RXF 393 renal = system: RXF 393 renal
NCI-H460 lung = system: NCI-H460 lung
BT-549 breast = system: BT-549 breast
DU-145 prostate = system: DU-145 prostate
MDA-MB-435 = system: MDA-MB-435
UACC-62 melanoma = system: UACC-62 melanoma
PC-3 prostate = system: PC-3 prostate

Nc1cc(-c2c[nH]c3ccc(F)cc23)nc2cc(-c3c[nH]c4ccccc34)nn12
GI50 (OVCAR-4 ovarian): 4.2 µM | TGI (OVCAR-4 ovarian): 18.9 µM | GI50 (SK-MEL-2 melanoma): 3.96 µM | TGI (SK-MEL-2 melanoma): 15.1 µM | GI50 (MDA-MB-231 breast): 2 µM | TGI (MDA-MB-231 breast): 3.84 µM | GI50 (NCI-H226 lung): 5.57 µM | TGI (NCI-H226 lung): 32.6 µM | GI50 (KM12 colon): 2.35 µM | TGI (KM12 colon): 5.79 µM | GI50 (HCT-116 colon): 1.91 µM | TGI (HCT-116 colon): 4.1 µM | GI50 (CAKI-1 renal): 2.74 µM | TGI (CAKI-1 renal): 12.4 µM | GI50 (UO-31 renal): 3.02 µM | TGI (UO-31 renal): 12.7 µM | GI50 (A549 NSCLC): 3.81 µM | TGI (A549 NSCLC): 20.5 µM | GI50 (786-0 renal): 1.49 µM | TGI (786-0 renal): 2.93 µM | GI50 (SR leukemia): 2.09 µM | TGI (SR leukemia): 8.42 µM | GI50 (HL-60(TB) leukemia): 2.18 µM | TGI (HL-60(TB) leukemia): 9.55 µM | GI50 (HCT-15 colon): 1.71 µM | TGI (HCT-15 colon): 3.69 µM | GI50 (NCI/ADR-RES ovarian): 3.82 µM | TGI (NCI/ADR-RES ovarian): 19.3 µM | GI50 (ACHN renal): 3.22 µM | TGI (ACHN renal): 10.9 µM | GI50 (MDA-MB-468 breast): 1.7 µM | TGI (MDA-MB-468 breast): 4.3 µM | GI50 (NCI-H23 lung): 3.8 µM | TGI (NCI-H23 lung): 17.7 µM | GI50 (CCRF-CEM leukemia): 2.65 µM | TGI (CCRF-CEM leukemia): 8.01 µM | GI50 (OVCAR-3 ovarian): 4.17 µM | TGI (OVCAR-3 ovarian): 16.9 µM | GI50 (MALME-3M melanoma): 2.24 µM | TGI (MALME-3M melanoma): 4.79 µM | GI50 (RPMI-8226 leukemia): 2.64 µM | TGI (RPMI-8226 leukemia): 8.15 µM | GI50 (SF-268 CNS): 4.15 µM | TGI (SF-268 CNS): 21.7 µM | GI50 (SK-MEL-5 melanoma): 3.79 µM | TGI (SK-MEL-5 melanoma): 13.6 µM | GI50 (HOP-92 NSCLC): 2.42 µM | TGI (HOP-92 NSCLC): 7.09 µM | GI50 (SNB-75 CNS): 2.88 µM | TGI (SNB-75 CNS): 14.6 µM | GI50 (SK-MEL-28 melanoma): 2.96 µM | TGI (SK-MEL-28 melanoma): 9.82 µM | GI50 (SNB-19 CNS): 4.59 µM | TGI (SNB-19 CNS): 18.9 µM | GI50 (SN12C renal): 6.94 µM | TGI (SN12C renal): 21.7 µM | GI50 (MCF7 breast): 2.54 µM | TGI (MCF7 breast): 8.12 µM | GI50 (HCC-2998 colon): 2.02 µM | TGI (HCC-2998 colon): 4.14 µM | GI50 (EKVX NSCLC): 3.49 µM | TGI (EKVX NSCLC): 14.9 µM | GI50 (T-47D breast): 3.54 µM | TGI (T-47D breast): 20.9 µM | GI50 (COLO 205 colon): 1.6 µM | TGI (COLO 205 colon): 3.2 µM | GI50 (HT29 colon): 2.09 µM | TGI (HT29 colon): 4.72 µM | GI50 (SW-620 colon): 2.11 µM | TGI (SW-620 colon): 4.22 µM | GI50 (SF-539 CNS): 2 µM | TGI (SF-539 CNS): 4.01 µM | GI50 (TK-10 renal): 5.54 µM | TGI (TK-10 renal): 19.9 µM | GI50 (SK-OV-3 ovarian): 10.1 µM | TGI (SK-OV-3 ovarian): 23 µM | GI50 (UACC-257 melanoma): 4.28 µM | TGI (UACC-257 melanoma): 15.2 µM | GI50 (HS 578T breast): 3.73 µM | TGI (HS 578T breast): 20.5 µM | GI50 (M14 melanoma): 1.98 µM | TGI (M14 melanoma): 4.21 µM | GI50 (IGROV1 ovarian): 4.26 µM | TGI (IGROV1 ovarian): 17.6 µM | GI50 (A498 renal): 2.8 µM | TGI (A498 renal): 11.3 µM | GI50 (U251 CNS): 3.53 µM | TGI (U251 CNS): 14.1 µM | GI50 (SF-295 CNS): 1.86 µM | TGI (SF-295 CNS): 4.04 µM | GI50 (OVCAR-5 ovarian): 3.3 µM | TGI (OVCAR-5 ovarian): 11.1 µM | GI50 (HOP-62 NSCLC): 4.55 µM | TGI (HOP-62 NSCLC): 21.8 µM | GI50 (K-562 leukemia): 2.15 µM | TGI (K-562 leukemia): 6.12 µM | GI50 (MOLT-4 leukemia): 2.44 µM | TGI (MOLT-4 leukemia): 6.87 µM | GI50 (OVCAR-8 ovarian): 4.3 µM | TGI (OVCAR-8 ovarian): 26.7 µM | GI50 (RXF 393 renal): 2.19 µM | TGI (RXF 393 renal): 7.82 µM | GI50 (NCI-H460 lung): 2.27 µM | TGI (NCI-H460 lung): 5.37 µM | GI50 (BT-549 breast): 8.6 µM | TGI (BT-549 breast): 20.8 µM | GI50 (DU-145 prostate): 4.3 µM | TGI (DU-145 prostate): 15.3 µM | GI50 (MDA-MB-435): 3.67 µM | TGI (MDA-MB-435): 15.2 µM | GI50 (UACC-62 melanoma): 6.03 µM | TGI (UACC-62 melanoma): 19.3 µM | GI50 (PC-3 prostate): 3.18 µM | TGI (PC-3 prostate): 12.2 µM
